Each structure is given as a SMILES string.

In paper PMC5642598, “Histone deacetylase inhibitor thailandepsin-A activates Notch signaling and suppresses neuroendocrine cancer cell growth in vivo” (Oncotarget, 2017) one finds EC50 data, which are given here for one molecule.

This test deals with T1, HDAC1 (Homo sapiens, UniProt Q13547).
T1 construct: HDAC1-NanoLuc fusion protein
The experiment in a line: NanoBRET target engagement in live TT cells, competitive displacement of HDAC Tracer-01. Format: cell-based. The source says:
NanoBRET target engagement in live TT cells, competitive displacement of HDAC Tracer-01 on HDAC1 | TDP-A dose-dependently attenuated BRET from intracellular HDAC1-NanoLuc fusion protein (Figure 1B) in low nanomolar concentrations
Background: Bioluminescence resonance energy transfer reports proximity on the nanometre scale.

T1 sequence (Q13547 whole entry, the tested form may be a part): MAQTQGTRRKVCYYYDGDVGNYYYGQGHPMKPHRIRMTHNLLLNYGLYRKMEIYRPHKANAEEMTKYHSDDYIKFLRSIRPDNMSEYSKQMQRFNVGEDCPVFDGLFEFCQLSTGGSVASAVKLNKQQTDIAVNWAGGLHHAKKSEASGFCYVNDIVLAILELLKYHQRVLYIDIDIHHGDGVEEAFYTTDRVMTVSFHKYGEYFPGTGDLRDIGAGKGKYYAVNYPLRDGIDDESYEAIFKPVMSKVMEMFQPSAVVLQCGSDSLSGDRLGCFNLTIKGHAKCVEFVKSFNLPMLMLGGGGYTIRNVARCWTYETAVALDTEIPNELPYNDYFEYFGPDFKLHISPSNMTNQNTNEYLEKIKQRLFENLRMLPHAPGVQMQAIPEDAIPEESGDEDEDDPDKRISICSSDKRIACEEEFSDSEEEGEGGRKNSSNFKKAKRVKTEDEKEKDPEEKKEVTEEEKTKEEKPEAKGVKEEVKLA

One may read the EC50 as the concentration giving half of the maximal effect. `CC[C@H](C)[C@H]1NC(=O)[C@H]2CSSCC/C=C/[C@H](CC(=O)N[C@H](CCSC)C(=O)N2)OC(=O)C[C@@H]1O` [TDP-A, thailandepsin A] registered an EC50 of 6.8 nM.
